In data set [1] the test system is MDA-MB-231. In words: MTT cytotoxicity assay, MDA-MB-231. It is filed as cell-based, human. As to conditions: for IC50: Homo sapiens, MDA-MB-231, MTT, 24 h exposure, ± SD, n = 8. An excerpt: (§1) The human cervical cancer cell line Hela, the human lung adenocarcinoma cell line A549, the human breast cancer cell lines MCF-7 and MDA-MB-231, the human hepatoma cell lines BEL-7402 and Hep G2, the human embryonic lung fibroblast cell line MRC-5, and the human nasal epithelial cell line HNEpC were all sourced from the China Center for Type Culture Collection (CCTCC, Wuhan University, Hubei, China). Hela, A549, MCF-7, MDA-MB-231, BEL-7402, MRC-5, and Hep G2 cells were maintained in DMEM media, while HNEpC cells were cultured in RPMI 1640. All media were supplemented with 10% FBS (v/v) and 1% penicillin-streptomycin, and cells were grown in a humidified atmosphere containing 5% CO2 at 37 °C.
(§2) The MTT assay was conducted to assess cell viability, as previously described. Cells were seeded onto 96-well plates at a density of 1 × 10^4 cells per well, with each experiment replicated eight times to ensure reproducibility. […] Subsequently, 10 μL MTT reagent was added to each well, and the plates were incubated for a further 4 h at 37 °C, adhering strictly to the manufacturer’s instructions. The optical density (OD) values were then measured at 570 nm using a microplate reader. The cell survival rate for each compound was calculated employing the following formula: OD value of the experimental group−OD value of the blank group/OD value of the control group−OD value of Blank group×100%
(§3) Statistical analysis data from the cytotoxicity and α-glycosidase inhibitory assays were analyzed using the mean and standard deviation. The 50% cytotoxic and inhibitory concentrations were calculated and compared to the control via non-linear regression. These analyses were performed using SPSS® Statistics (Version 18.0, IBM Software, Armonk, NY, USA).
Background: Tetrazolium dyes change colour on reduction, which living cells bring about.

Data set [2] concerns Hep G2. In words: MTT cytotoxicity assay, Hep G2. It is filed as cell-based. The note with it: Homo sapiens, HepG2, 24 h exposure, ± SD, n = 8.
From the text: as §1, §2, §3

Data set [3] deals with Hela. In words: MTT cytotoxicity assay, Hela. It is filed as cell-based. As to conditions: Homo sapiens, 24 h exposure, ± SD, n = 8.
From the text: as §1, §2, §3

For data set [4], the system named is BEL-7402. In words: MTT cytotoxicity assay, BEL-7402. It is filed as cell-based. As to conditions: Homo sapiens, 24 h exposure, ± SD, n = 8.
From the text: as §1, §2, §3

The nature of data set [5]: MTT cytotoxicity assay, MRC-5 (normal cells). It is filed as cell-based. As to conditions: MRC-5 cells (normal embryonic lung fibroblasts), normal human embryonic lung fibroblast, 24 h exposure, n = 8.
From the text: as §1
(§4) The MTT assay was conducted to assess cell viability, as previously described. Cells were seeded onto 96-well plates at a density of 1 × 10^4 cells per well, with each experiment replicated eight times to ensure reproducibility. Following incubation at 37 °C for 24 h, cells were exposed to various concentrations (0.25, 0.5, 1.0, 2.0, 4.0, 8.0, 16.0, 32.0 µM) of compounds 1–10 for 24 h. Subsequently, 10 μL MTT reagent was added to each well, and the plates were incubated for a further 4 h at 37 °C, adhering strictly to the manufacturer’s instructions. The optical density (OD) values were then measured at 570 nm using a microplate reader. The cell survival rate for each compound was calculated employing the following formula: OD value of the experimental group−OD value of the blank group/OD value of the control group−OD value of Blank group×100%
as §3

Data set [6] relates to A549. Briefly: MTT cytotoxicity assay, A549. It is filed as cell-based. As to conditions: Homo sapiens, 24 h exposure, ± SD, n = 8.
From the text: as §1, §2, §3

Data set [7] in a line: MTT cytotoxicity assay, HNEpC (normal cells). As to conditions: HNEpC cells (normal nasal epithelial cells), normal human nasal epithelial cells, 24 h exposure, n = 8. It is filed as cell-based.
From the text: as §1, §4, §3

For data set [8], the system named is MCF-7. In words: MTT cytotoxicity assay, MCF-7. It is filed as cell-based. As to conditions: Homo sapiens, MCF7, 24 h exposure, ± SD, n = 8.
From the text: as §1, §4, §3

Where only a bound is given, the exact number is not on record here.

Results on eight compounds are retold here after publication PMC11506924, “Triterpenoid Saponins and Flavonoid Glycosides from the Flower of Camellia flavida and Their Cytotoxic and α-Glycosidase Inhibitory Activities” (International Journal of Molecular Sciences, 2024).

Consider `CC(=O)OC1C(C)OC(OC2C(OC3C(OC4C(=O)c5c(O)cc(O)cc5OC4c4ccc(O)cc4)OC(C)C(O)C3O)OC(CO)C(O)C2O)C(O)C1O` [Compound 6, (2R,3R)-3,5,7,4′-tetrahydroxyflavanone-3-O-[4-acetyl-O-α-L-rhamnopyranosyl-(1→2)-β-D-glucopyranosyl-(1→2)]-α-L-rhamnoside], for which the IC50 (commonly the midpoint of a concentration-inhibition curve) in data set [1] is over 30 µM; in data set [2], over 30 µM; in data set [3], over 30 µM; in data set [4], 11.4 ± 3.11 µM; in data set [6], over 30 µM; in data set [8] it was over 30 µM. Moreover, the IC50 at 24 h in data set [5] and in data set [7] was over 30 µM in each case.
`COc1cccc2c1C(=O)c1c(O)c3c(c(O)c1C2=O)C[C@@](O)(C(=O)CO)C[C@@H]3O[C@H]1C[C@H](N)[C@H](O)[C@H](C)O1` [doxorubicin, reference compound]: the IC50 in data set [8] was 3.79 ± 0.26 µM.
On to `CC1OC(OC2C(OC3C(O)C(C(=O)O)OC(OC4CCC5(C)C(CCC6(C)C5CC=C5C7CC(C)(C)CCC7(CO)C(=O)C(O)C56C)C4(C)C)C3OC3OC(CO)C(O)C(O)C3O)OC(CO)C(O)C2O)C(O)C(O)C1O` [Compound 3, 3β,15α,28-trihydroxyolean-12-en-16-on-3-O-β-D-glucopyranosyl-(1→2)-[α-L-rhamnopyranosyl-(1→2)-β-D-galactopyranosyl-(1→3)]-β-D-glucuronopyranoside], for which the IC50 in data set [1] is 10.1 ± 2.28 µM; in data set [2], 8.77 ± 1.56 µM; in data set [3], over 30 µM; in data set [4], 4.94 ± 0.41 µM; in data set [6], 23.4 ± 7.26 µM; in data set [8] it was 1.65 ± 0.39 µM. Also, in data set [1] (compared with positive control), the “inhibitory effect on MDA-MB-231 cells (in words)” value is reported as “comparable to that of cisplatin”. Moreover, the IC50 at 24 h in data set [5] and in data set [7] was over 30 µM each time.
In the case of `CC1OC(OC2C(OC3C(OC4C(=O)c5c(O)cc(O)cc5OC4c4ccc(O)cc4)OC(C)C(O)C3O)OC(CO)C(O)C2O)C(O)C(O)C1O` [Compound 4, (2R,3R)-3,5,7,4′-tetrahydroxyflavanone-3-O-α-L-rhamnopyranosyl-(1→2)-β-D-glucopyranosyl-(1→2)-α-L-rhamnoside], the IC50 in data set [1], in data set [2], in data set [3], in data set [4], in data set [6] and in data set [8] was over 30 µM throughout. The IC50 at 24 h in data set [5] and in data set [7] was over 30 µM throughout.
Turning to `C[C@@H]1O[C@@H](OC[C@H]2O[C@@H](Oc3c(-c4ccc(O)c(O)c4)oc4cc(O)cc(O)c4c3=O)[C@H](OC(=O)/C=C/c3ccc(O)cc3)[C@@H](O[C@@H]3OC[C@H](O)[C@H](O)[C@H]3O)[C@@H]2O)[C@H](O)[C@H](O[C@@H]2OC[C@@H](O)[C@H](O)[C@H]2O)[C@H]1O` [Compound 7, 3,5,7,3′,4′-pentahydroxyflavonol-3-O-α-L-arabinopyranosyl-(1→3)-[β-D-xylopyranosyl-(1→3)-α-L-rhamnopyranosyl-(1→6)]-2-O-p-E-coumaryl-β-D-glucopyranoside], the IC50 in data set [1], in data set [2], in data set [3], in data set [4], in data set [6] and in data set [8] was over 30 µM each time. Further, the IC50 at 24 h in data set [5] and in data set [7] was over 30 µM each time.
Regarding `CC1OC(OC2C(OC3C(O)C(C(=O)O)OC(OC4CCC5(C)C(CCC6(C)C5CC=C5C7CC(C)(C)CCC7(CO)C(O)C(O)C56C)C4(C)C)C3OC3OC(CO)C(O)C(O)C3O)OC(CO)C(O)C2O)C(O)C(O)C1O` [Compound 2, 3β,15α,16α,28-tetrahydroxyolean-12-en-3-O-β-D-glucopyranosyl-(1→2)-[α-L-rhamnopyranosyl-(1→2)-β-D-galactopyranosyl-(1→3)]-β-D-glucuronopyranoside], the IC50 in data set [1] was 26.5 ± 3.07 µM; in data set [2], 14 ± 3.29 µM; in data set [3], 4.17 ± 0.85 µM; in data set [4], over 30 µM; in data set [6], over 30 µM; in data set [8], 19.2 ± 3.71 µM. Also, the IC50 at 24 h in data set [5] and in data set [7] was over 30 µM throughout.
With `COC(=O)C1OC(OC2CCC3(C)C(CCC4(C)C3CC=C3C5CC(C)(C)CCC5(CO)C(O)C(O)C34C)C2(C)C)C(OC2OC(CO)C(O)C(O)C2O)C(OC2OC(CO)C(O)C(O)C2OC2OC(C)C(O)C(O)C2O)C1O` [Compound 1, 3β,15α,16α,28-tetrahydroxyolean-12-en-3-O-β-D-glucopyranosyl-(1→2)-[α-L-rhamnopyranosyl-(1→2)-β-D-galactopyranosyl-(1→3)]-β-D-glucuronopyranoside methyl ester], the IC50 in data set [1] was over 30 µM; in data set [2] it was 25.6 ± 3.46 µM; in data set [3], 15.1 ± 1.06 µM; in data set [4], 7.62 ± 1.06 µM; in data set [6] it was over 30 µM; in data set [8], 9.06 ± 0.45 µM. For the same compound, the IC50 at 24 h in data set [5] and in data set [7] was over 30 µM throughout.
In the case of `CC(=O)OC1C(O)C(C)OC(OC2C(OC3C(OC4C(=O)c5c(O)cc(O)cc5OC4c4ccc(O)cc4)OC(C)C(O)C3O)OC(CO)C(O)C2O)C1O` [Compound 5, (2R,3S)-3,5,7,4′-tetrahydroxyflavanone-3-O-[3-acetyl-O-α-L-rhamnopyranosyl-(1→2)-β-D-glucopyranosyl-(1→2)]-α-L-rhamnoside], the IC50 in data set [1] is over 30 µM; in data set [2], 20.8 ± 3.79 µM; in data set [3], over 30 µM; in data set [4], over 30 µM; in data set [6], over 30 µM; in data set [8] it was over 30 µM. The IC50 at 24 h in data set [5] and in data set [7] was over 30 µM each time.
